“Also recorded” adds a separate entry of the source. Like-named read-outs stand apart in the source and are kept apart here.
Tests used:
EGFR = molecular target: T1, EGFR (Homo sapiens, UniProt P00533); assay: Inhibition of EGFR autophosphorylation (anti-EGF-R immunoprecipitate from A431 cells, EGF stimulation); type: biochemical; conditions: for Relative inhibition of EGF receptor kinase, in words: comparison from Table V
T1 construct: endogenous in cells; host or cells: A431 cells (detergent lysate, anti-EGF-R Ab 108 immunoprecipitate)
Protocol: Inhibition of EGFR Autophosphorylation A431 cells were grown to confluence on human fibronectin coated tissue culture dishes. […] The reaction was stopped by adding hot electrophoresis sample buffer. […] "IC50," as used below, refers to the concentration of inhibitor (μM) at which the rate of autophosphorylation is halved, compared with media containing no inhibitor. […] The EGFR autophosphorylation inhibition was evaluated using the same procedure as described hereinbefore.

[1] = test system: DNA synthesis in PDGF-stimulated cells; assay: Inhibition of cell proliferation as measured by inhibition of DNA synthesis ([3H]thymidine incorporation), PDGF-stimulated cells; type: cell-based; conditions: Table IV; PDGF stimulation; [3H]thymidine incorporation halved
Protocol: (§1) Inhibition of Cell Proliferation as Measured by Inhibition of DNA Synthesis Cells were seeded at 1×10^5 cells per well in 24-well Costar dishes pre-coated with human fibronectin (by incubating for 30 minutes at room temperature with 10 μg/0.5 ml/well). The cells were grown to confluence for 2 days. The medium was changed to DMEM containing […] for 36-48 hours and the cells were then incubated with PDGF, EGF (Toyobo, New York, N.Y.) (20 ng/ml) or serum (10% calf serum, FCS) and different concentrations of the inhibitory compounds. [^3 H]thymidine,(NEN, Boston, Mass.) was added 16-24 hours later at 0.5 μCi/ml for 2 hours. TCA precipitable material was quantitated by scintillation counting (C).

[2] = test system: DNA synthesis in serum (FCS)-stimulated cells; assay: Inhibition of cell proliferation as measured by inhibition of DNA synthesis ([3H]thymidine incorporation), serum (10% FCS)-stimulated cells; type: cell-based; conditions: 10% calf serum (FCS); for IC50: Table IV, [3H]thymidine incorporation halved; for inhibition at 1 µM: read-out: Inhibition of [3H]thymidine incorporation, FCS (printed in the IC50 - FCS column)
Protocol: as §1

PDGF receptor kinase = assay: Inhibition of autophosphorylation, procedure repeated with PDGF stimulation; type: biochemical; conditions: Table III
other protein kinases = conditions: cited from earlier work
EGF receptor [3] = assay: ATP dependence of EGF-receptor autophosphorylation (10-s assay); type: biochemical; conditions: 15° C., read-out: Km for ATP in EGFR autophosphorylation
Protocol: EGF-Receptor Purification
EGF-receptor purification is based on the procedure of Yarden and Schlessinger. A431 cells are grown in 80 cm^2 bottles to confluency (2×10^7 cells per bottle). The cells are washed twice with PBS and harvested with PBS containing 1.0 mmol EDTA (1 hour at 37° C.), and centrifuged at 600 g for 10 minutes. The cells are solubilized in 1 ml per 2×10^7 cells of cold solubilization buffer (50 mmol Hepes buffer, pH 7.6, 1% Triton X-100, 150 mmol NaCl, 5 mmol EGTA, 1 mmol PMSF, 50 μg/ml aprotinin, 25 mmol benzamidine, 5 μg/ml leupeptic, and 10 μg/ml soybean trypsin inhibitor) for 20 minutes at 4° C. After centrifugation at 100000 g for 30 minutes, the supernatant is loaded onto a WGA-agarose column (100 μl of packed resin per 2×10^7 cells) and shaken for 2 hours at 4° C. The unabsorbed material is removed and the resin washed twice with HTN buffer (50 mmol Hepes, pH 7.6, 0.1% Triton X-100, 150 mmol NaCl), twice with HTN buffer containing 1M NaCl, and twice with HTNG buffer (50 mmol Hepes, pH 7.6, 0.1% Triton X-100, 150 mmol NaCl, and 10% glycerol). The EGF receptor is eluted batchwise with HTNG buffer containing 0.5M N-acetyl-D-glucosamine (200 μl per 2×10^7 cells). The eluted material is stored in aliquots at -70° C. and diluted before use with TMTNG buffer (50 mmol Tris-Mes buffer, pH 7.6, 0.1% Triton X-100, 150 mmol NaCl, 10% glycerol).

[4] = test system: cyclic adenosine 3', 5'-monophosphate (cAMP)-dependent protein kinase; conditions: compared with EGF receptor autophosphorylation; cited from earlier work
EGF receptor [5] = conditions: membranes of A431 cells; cited from earlier work
[6] = Table V, comparison with prior art compound C-1, same procedure as before, read-out: IC50, inhibition of EGFR autophosphorylation (Table V)
[7] = Table III, EGF stimulation, autophosphorylation 2 min at 4° C., read-out: IC50 EGF

T1 sequence (P00533 25-1210): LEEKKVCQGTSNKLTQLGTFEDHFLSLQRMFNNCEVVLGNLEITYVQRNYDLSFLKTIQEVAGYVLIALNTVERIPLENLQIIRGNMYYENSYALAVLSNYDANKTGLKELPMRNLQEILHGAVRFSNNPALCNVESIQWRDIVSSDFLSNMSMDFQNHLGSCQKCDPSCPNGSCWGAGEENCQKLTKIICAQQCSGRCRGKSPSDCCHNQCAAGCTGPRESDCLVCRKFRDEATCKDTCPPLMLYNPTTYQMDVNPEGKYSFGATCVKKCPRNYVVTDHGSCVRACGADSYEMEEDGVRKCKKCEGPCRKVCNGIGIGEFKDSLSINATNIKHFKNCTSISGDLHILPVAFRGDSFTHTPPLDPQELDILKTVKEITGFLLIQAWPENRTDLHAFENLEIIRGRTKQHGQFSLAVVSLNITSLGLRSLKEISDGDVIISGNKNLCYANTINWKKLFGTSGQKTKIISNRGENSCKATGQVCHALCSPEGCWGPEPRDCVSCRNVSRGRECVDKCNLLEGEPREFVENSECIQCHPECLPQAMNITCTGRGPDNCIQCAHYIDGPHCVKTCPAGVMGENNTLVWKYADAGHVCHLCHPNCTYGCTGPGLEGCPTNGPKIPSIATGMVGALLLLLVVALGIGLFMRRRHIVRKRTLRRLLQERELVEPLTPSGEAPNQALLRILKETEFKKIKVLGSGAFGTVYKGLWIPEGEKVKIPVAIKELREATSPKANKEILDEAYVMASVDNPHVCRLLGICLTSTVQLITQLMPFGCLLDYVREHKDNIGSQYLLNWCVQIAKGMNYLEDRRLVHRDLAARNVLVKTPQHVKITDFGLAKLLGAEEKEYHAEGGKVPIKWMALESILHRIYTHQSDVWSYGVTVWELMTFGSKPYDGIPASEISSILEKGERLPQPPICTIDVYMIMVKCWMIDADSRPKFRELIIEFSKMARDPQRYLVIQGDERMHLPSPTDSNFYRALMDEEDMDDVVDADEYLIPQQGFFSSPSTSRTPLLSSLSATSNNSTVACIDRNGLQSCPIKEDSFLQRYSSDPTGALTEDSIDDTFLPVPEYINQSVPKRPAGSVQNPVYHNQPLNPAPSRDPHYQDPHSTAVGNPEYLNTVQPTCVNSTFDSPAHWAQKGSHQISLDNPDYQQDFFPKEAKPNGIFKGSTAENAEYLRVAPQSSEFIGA

Row | SMILES | IC50 (EGFR; [7]) [nM] | IC50 (PDGF receptor kinase) [nM] | IC50 [1] [nM] | also measured
1 | N#C/C(=C\c1cc(Cl)cc(Cl)c1)c1cccnc1 [Example 1A, trans-2-(3-Pyridyl)-3-(3,5-dichlorophenyl)-2-propenenitrile] |  |  |  | IC50 (EGFR; [6]): 2000 nM; Relative inhibition of EGF receptor kinase, in words (EGFR): more potent inhibitor of EGF receptor kinase than C-1; Relative inhibition of EGF receptor kinase, in words (EGFR; listed as 1-A): much better activity than that of its corresponding N-oxide
2 | O=c1c(-c2ccc(O)cc2)coc2cc(O)cc(O)c12 [genistein] |  |  |  | Competition with ATP; inhibition of other protein kinases, in words (other protein kinases): compete with ATP, inhibit other protein kinases
3 | N#CC(=Cc1ccc(Cl)cc1Cl)c1cccnc1 [Example C-1, 2-(3-pyridyl)-3-(2,4-dichlorophenyl)-2-propenenitrile, reference compound] |  |  |  | IC50 (EGFR; [6]): ≥ 50000 nM
4 | O=c1c(O)c(-c2ccc(O)c(O)c2)oc2cc(O)cc(O)c12 [quercetin] |  |  |  | Competition with ATP; inhibition of other protein kinases, in words (other protein kinases): compete with ATP, inhibit other protein kinases
5 | COc1ccc(C=C(C#N)c2cccnc2)cc1OC [Example 7, 2-(3-Pyridyl)-3-(3,4-dimethoxyphenyl)-2-propenenitrile] | 400 | 30000 |  | 
6 | Nc1ncnc2c1ncn2[C@@H]1O[C@H](COP(=O)(O)OP(=O)(O)OP(=O)(O)O)[C@@H](O)[C@H]1O [ATP, adenosine triphosphate] |  |  |  | Km (EGF receptor [3]): 7.2 µM
7 | CC(C)(C)c1cc(C=C(C#N)c2ccccn2)cc(C(C)(C)C)c1 [Example 4, 2-(2-Pyridyl)-3-(3,5-di-tert-butylphenyl)-2-propenenitrile] |  |  | 9 ± 2 | IC50 [2]: 500 nM
8 | O=CN/C=C/c1cc(O)ccc1O [erbstatin] |  |  |  | Concentrations required to inhibit cAMP-dependent protein kinase, in words [4]: much higher concentrations of erbstatin are required; Inhibition of EGF receptor autophosphorylation, in words (EGF receptor [5]): inhibits the autophosphorylation of the EGF receptor; also recorded: Low concentrations of erbstatin are required to inhibit EGF receptor autophosphorylation
9 | COc1ccc(C=C(C#N)c2cn(S(=O)(=O)c3ccc([N+](=O)[O-])cc3)c3ccccc23)cc1OC [Example 6, 2-[1-(4-Nitrophenylsulfonyl)indol-3-yl]-3-(3,4-dimethoxyphenyl)-2-propenenitrile] | 20000 | > 50000 | 17 | inhibition at 1 µM [2]: 15%

Second part, led by results:

Row | IC50 (EGFR; [7]) [nM] | IC50 (PDGF receptor kinase) [nM] | SMILES | IC50 [1] [nM] | also measured
10 | 100 | 20000 | N#C/C(=C\c1cc(Cl)cc(Cl)c1)c1ccc[n+]([O-])c1 [Example 2, trans-2-(3-pyridyl)-3-(3,5-dichlorophenyl)-2-propenenitrile, N-oxide] | 30 ± 17 | IC50 (EGFR; [6]): ≥ 50000 nM; IC50 [2]: 100 nM
11 | 400 | 10000 | COc1ccc(C=C(C#N)c2c[nH]c3ccccc23)cc1OC [Example 5, 2-(3-Indolyl)-3-(3,4-dimethoxyphenyl)-2-propenenitrile] |  | 
12 | 500 | 6000 | COc1ccc(C=C(C#N)c2ccccn2)cc1OC [Example 3, 2-(2-Pyridyl)-3-(3,4-dimethoxyphenyl)-2-propenenitrile] | 14 ± 10 | inhibition at 1 µM [2]: 27 ± 5%

Reference: patent US5677329A, “Styryl-substituted monocyclic and bicyclic heteroaryl compounds which inhibit EGF receptor tyrosine kinase” (Rhone-Poulenc Rorer Pharmaceuticals, Inc., priority 1995, dated 1997)
